Results: patent publication US9593110B2, “Neprilysin inhibitors” (Theravence Biopharma R&D IP, LLC, priority 2014, dated 2017)

What follows are molecules tested against human NEP (Homo sapiens (Human), UniProt P08473) (assay: In vitro enzyme inhibition assay at human NEP). Details: pKi, recombinant human NEP, fluorogenic peptide substrate, 37° C.
Chain of human NEP (P08473 52-750): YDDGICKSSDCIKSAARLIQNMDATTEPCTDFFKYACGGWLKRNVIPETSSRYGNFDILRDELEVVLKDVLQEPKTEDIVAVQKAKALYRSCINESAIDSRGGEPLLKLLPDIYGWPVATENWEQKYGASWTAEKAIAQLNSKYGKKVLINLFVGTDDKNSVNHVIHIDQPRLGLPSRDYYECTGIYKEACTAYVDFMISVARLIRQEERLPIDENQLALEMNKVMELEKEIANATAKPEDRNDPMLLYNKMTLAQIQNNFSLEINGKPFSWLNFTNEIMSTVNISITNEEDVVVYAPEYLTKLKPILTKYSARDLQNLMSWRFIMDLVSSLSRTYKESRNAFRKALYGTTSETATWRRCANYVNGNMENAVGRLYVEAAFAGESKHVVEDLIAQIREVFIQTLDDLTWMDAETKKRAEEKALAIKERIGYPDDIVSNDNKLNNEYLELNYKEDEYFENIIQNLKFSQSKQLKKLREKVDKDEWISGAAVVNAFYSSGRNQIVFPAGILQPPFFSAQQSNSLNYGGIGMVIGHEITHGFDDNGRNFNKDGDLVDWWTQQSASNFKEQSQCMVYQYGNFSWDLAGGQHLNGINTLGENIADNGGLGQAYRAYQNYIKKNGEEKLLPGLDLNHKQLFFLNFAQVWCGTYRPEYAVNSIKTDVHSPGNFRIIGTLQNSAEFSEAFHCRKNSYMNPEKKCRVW
Experimental: The inhibitory activities of compounds at human and rat neprilysin (EC 3.4.24.11; NEP) and human angiotensin converting enzyme (ACE) were determined using in vitro assays as described below.
The assays were performed in 384-well white opaque plates at 37° C. using the fluorogenic peptide substrates at a concentration of 10 μM in Assay Buffer (NEP: 50 mM HEPES, pH 7.5, 100 mM NaCl, 0.01% polyethylene glycol sorbitan monolaurate (Tween-20), 10 μM ZnSO4; ACE: 50 mM HEPES, pH 7.5, 100 mM NaCl, 0.01% Tween-20, 1 μM ZnSO4).
Test compounds were assayed over the range of concentrations from 10 μM to 20 pM. Test compounds were added to the enzymes and incubated for 30 minute at 37° C. prior to initiating the reaction by the addition of substrate.
Plates were read on a fluorometer with excitation and emission wavelengths set to 320 nm and 405 nm, respectively Inhibition constants were obtained by nonlinear regression of the data using the equation (GraphPad Software, Inc., San Diego, Calif.): v=v0/[1+(I/K′)] where v is the reaction rate, v0 is the uninhibited reaction rate, I is the inhibitor concentration and K′ is the apparent inhibition constant.

Ki	Structure (SMILES)
1.26 to 3.16 nM	N[C@@H](C[C@@H](Cc1ccc(-c2cc(Cl)ccc2F)cc1)NC(=O)c1cc(O)no1)C(=O)O [Example 16-27, (2S,4R)-2-Amino-5-(5′-chloro-2′-fluorobiphenyl-4-yl)-4-[(3-hydroxyisoxazole-5-carbonyl)amino]pentanoic acid]
≤ 1 nM	CC(C)c1coc(C(=O)N[C@H](Cc2ccc(-c3cc(Cl)ccc3F)cc2Cl)C[C@@H](N)C(=O)O)n1 [Example 17, (2R,4R)-2-Amino-5-(3,5′-dichloro-2′-fluorobiphenyl-4-yl)-4-[(4-isopropyloxazole-2-carbonyl)amino]pentanoic Acid]
3.16 to 10 nM	CC(C)c1coc(C(=O)N[C@H](Cc2ccc(-c3cc(Cl)ccc3F)cc2Cl)C[C@H](N)C(=O)O)n1 [Example 18-1, (2S,4R)-2-Amino-5-(3,5′-dichloro-2′-fluorobiphenyl-4-yl)-4-[(4-isopropyloxazole-2-carbonyl)amino]pentanoic acid]
10 to 31.6 nM	COCc1cc(C(=O)N[C@H](Cc2ccc(-c3cc(Cl)ccc3F)cc2Cl)C[C@@H](N)C(=O)O)no1 [Example 18-7, (2R,4R)-2-Amino-5-(3,5′-dichloro-2′-fluorobiphenyl-4-yl)-4-[(5-methoxymethylisoxazole-3-carbonyl)amino]pentanoic acid]
3.16 to 10 nM	N[C@H](C[C@@H](Cc1ccc(-c2cc(Cl)ccc2F)cc1Cl)NC(=O)c1cc(C2CC2)on1)C(=O)O [Example 18-9, (2R,4R)-2-Amino-4-[(5-cyclopropyl-isoxazole-3-carbonyl)-amino]-5-(3,5′-dichloro-2′-fluorobiphenyl-4-yl)pentanoic acid]

Structure (SMILES)	Ki
N[C@@H](C[C@@H](Cc1ccc(-c2cc(Cl)ccc2F)cc1)NC(=O)c1nc2cc(Cl)ccn2n1)C(=O)O [Example 16-26, (2S,4R)-2-Amino-5-(5′-chloro-2′-fluorobiphenyl-4-yl)-4-[(7-chloro-[1,2,4]triazolo[1,5-a]pyridine-2-carbonyl)amino]pentanoic acid]	1.26 to 3.16 nM
Cc1cnc(C(=O)N[C@H](Cc2ccc(-c3cc(Cl)ccc3F)cc2Cl)C[C@H](N)C(=O)O)o1 [Example 18-4, (2S,4R)-2-Amino-5-(3,5′-dichloro-2′-fluorobiphenyl-4-yl)-4-[(5-methyloxazole-2-carbonyl)amino]pentanoic acid]	3.16 to 10 nM
CCc1cc(C(=O)N[C@H](Cc2ccc(-c3cc(Cl)ccc3F)cc2Cl)C[C@@H](N)C(=O)O)on1 [Example 18-5, (2R,4R)-2-Amino-5-(3,5′-dichloro-2′-fluorobiphenyl-4-yl)-4-[(3-ethylisoxazole-5-carbonyl)amino]pentanoic acid]	1.26 to 3.16 nM
COc1cnc(C(=O)N[C@H](Cc2ccc(-c3cc(Cl)ccc3F)cc2Cl)C[C@H](N)C(=O)O)o1 [Example 18-12, (2S,4R)-2-Amino-5-(3,5′-dichloro-2′-fluoro-biphenyl-4-yl)-4-[(5-methoxyoxazole-2-carbonyl)amino]pentanoic acid]	3.16 to 10 nM

Same assay, conditions: recombinant human NEP, fluorogenic peptide substrate, 37° C.

pKi	Structure (SMILES)
≧9.0	CNC(=O)c1cc(C(=O)N[C@H](Cc2ccc(-c3cc(Cl)ccc3F)cc2)C[C@@H](N)C(=O)O)[nH]n1 [Example 16-21, (2R,4R)-2-Amino-5-(5′-chloro-2′-fluorobiphenyl-4-yl)-4-[(5-methylcarbamoyl-2H-pyrazole-3-carbonyl)amino]pentanoic acid]
≧9.0	N[C@H](C[C@@H](Cc1ccc(-c2cc(Cl)ccc2F)cc1)NC(=O)c1cc(O)no1)C(=O)O [Example 16-28, (2R,4R)-2-Amino-5-(5′-chloro-2′-fluorobiphenyl-4-yl)-4-[(3-hydroxyisoxazole-5-carbonyl)amino]pentanoic acid]
≧9.0	N[C@H](C[C@@H](Cc1ccc(-c2cc(Cl)ccc2F)cc1)NC(=O)c1ncccn1)C(=O)O [Example 16-29, (2R,4R)-2-Amino-5-(5′-chloro-2′-fluorobiphenyl-4-yl)-4-[(pyrimidine-2-carbonyl)-amino]pentanoic acid]
≧9.0	N[C@H](C[C@@H](Cc1ccc(-c2cc(Cl)ccc2F)cc1)NC(=O)c1coc(=O)[nH]1)C(=O)O [Example 16-31, (2R,4R)-2-Amino-5-(5′-chloro-2′-fluorobiphenyl-4-yl)-4-[(2-oxo-2,3-dihydro-oxazole-4-carbonyl)amino]pentanoic acid]
≧9.0	N[C@H](C[C@@H](Cc1ccc(-c2cc(Cl)ccc2F)cc1)NC(=O)c1cc(-c2cnccn2)n[nH]1)C(=O)O [Example 16-33, (2R,4R)-2-Amino-5-(5′-chloro-2′-fluorobiphenyl-4-yl)-4-[(5-pyrazin-2-yl-2H-pyrazole-3-carbonyl)amino]pentanoic acid]
≧9.0	N[C@H](C[C@@H](Cc1ccc(-c2cc(Cl)ccc2F)cc1)NC(=O)c1nn(-c2ccccc2)c(=O)[nH]1)C(=O)O [Example 16-35, (2R,4R)-2-Amino-5-(5′-chloro-2′-fluorobiphenyl-4-yl)-4-[(5-oxo-1-phenyl-4,5-dihydro-1H-[1,2,4]triazole-3-carbonyl)amino]p entanoic acid]
≧9.0	CCCc1nc(C(=O)N[C@H](Cc2ccc(-c3cc(Cl)ccc3F)cc2Cl)C[C@@H](N)C(=O)O)co1 [Example 18-2, (2R,4R)-2-Amino-5-(3,5′-dichloro-2′-fluorobiphenyl-4-yl)-4-[(2-propyloxazole-4-carbonyl)amino]pentanoic acid]
≧9.0	COCc1cc(C(=O)N[C@H](Cc2ccc(-c3cc(Cl)ccc3F)cc2Cl)C[C@H](N)C(=O)O)no1 [Example 18-8, (2S,4R)-2-Amino-5-(3,5′-dichloro-2′-fluorobiphenyl-4-yl)-4-[(5-methoxymethylisoxazole-3-carbonyl)amino]pentanoic acid]
≧9.0	N[C@@H](C[C@@H](Cc1ccc(-c2cc(Cl)ccc2F)cc1Cl)NC(=O)c1cc(C2CC2)on1)C(=O)O [Example 18-10, (2S,4R)-2-Amino-4-[(5-cyclopropyl-isoxazole-3-carbonyl)-amino]-5-(3,5′-dichloro-2′-fluorobiphenyl-4-yl)pentanoic acid]

Structure (SMILES)	pKi
N[C@H](C[C@@H](Cc1ccc(-c2cc(Cl)ccc2F)cc1)NC(=O)c1nc2cc(Cl)ccn2n1)C(=O)O [Example 16-25, (2R,4R)-2-Amino-5-(5′-chloro-2′-fluorobiphenyl-4-yl)-4-[(7-chloro-[1,2,4]triazolo[1,5-a]pyridine-2-carbonyl)amino]pentanoic acid]	≧9.0
Cc1cnc(C(=O)N[C@H](Cc2ccc(-c3cc(Cl)ccc3F)cc2Cl)C[C@@H](N)C(=O)O)o1 [Example 18-3, (2R,4R)-2-Amino-5-(3,5′-dichloro-2′-fluorobiphenyl-4-yl)-4-[(5-methyloxazole-2-carbonyl)amino]pentanoic acid]	≧9.0
CCc1cc(C(=O)N[C@H](Cc2ccc(-c3cc(Cl)ccc3F)cc2Cl)C[C@H](N)C(=O)O)on1 [Example 18-6, (2S,4R)-2-Amino-5-(3,5′-dichloro-2′-fluorobiphenyl-4-yl)-4-[(3-ethylisoxazole-5-carbonyl)amino]pentanoic acid]	≧9.0
COc1cnc(C(=O)N[C@H](Cc2ccc(-c3cc(Cl)ccc3F)cc2Cl)C[C@@H](N)C(=O)O)o1 [Example 18-11, (2R,4R)-2-Amino-5-(3,5′-dichloro-2′-fluoro-biphenyl-4-yl)-4-[(5-methoxyoxazole-2-carbonyl)amino]pentanoic acid]	≧9.0
